Laboratory results taken from the supplement of paper PMC10307832.

Tests used:
Assay in all cases: relative viability (nuclei count vs DMSO), 5 days (fraction); higher = more cells survive
[1] = test system: COR-L23
Method in brief: (§1)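 Relative viability is defined as nuclei in treated wells over nuclei in vehicle wells. Duplicate plates were run and medians reported. Lung cancer cell lines in 1536-well plates were dosed by pin tool one day after seeding, with one drug or with a fixed anchor-drug dose plus five library-drug doses (not always all listed) in √10 steps, and nuclei were counted after 5 days.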

[2] = test system: H3255
Method in brief: as §1

[3] = test system: HCC-15
Method in brief: as §1

[4] = test system: HCC-366
Method in brief: as §1

[5] = test system: HCC-827
Method in brief: as §1

[6] = test system: LC-2-ad
Method in brief: as §1

[7] = test system: LCLC-103H
Method in brief: as §1

[8] = test system: LXF-289
Method in brief: as §1

[9] = test system: NCI-H1437
Method in brief: as §1

[10] = test system: NCI-H1666
Method in brief: as §1

[11] = test system: NCI-H1975
Method in brief: as §1

[12] = test system: NCI-H2009
Method in brief: as §1

[13] = test system: NCI-H2085
Method in brief: as §1

[14] = test system: NCI-H2087
Method in brief: as §1

[15] = test system: NCI-H2228
Method in brief: as §1

[16] = test system: NCI-H2342
Method in brief: as §1

[17] = test system: NCI-H23
Method in brief: as §1

[18] = test system: NCI-H661
Method in brief: as §1

[19] = test system: PC-14
Method in brief: as §1

[20] = test system: PC-3 [JPC-3]
Method in brief: as §1

[21] = test system: SK-MES-1
Method in brief: as §1

[22] = test system: UMC-11
Method in brief: as §1

In the case of `Cc1csc(=NC2CCCCC2)n1/N=C/c1ccc(O)c(O)c1O` [MIM1] + Nc1nc2[nH]cc(CCc3ccc(C(=O)N[C@@H](CCC(=O)O)C(=O)O)cc3)c2c(=O)[nH]1 [Pemetrexed] (partner 0.2 µM), the relative viability ([1]; first compound 0.2 µM) is reported as 0.208, the relative viability ([1]; first compound 0.6325 µM) is reported as 0.194 and the relative viability ([1]; first compound 2 µM) is reported as 0.191. It also gave a relative viability ([1]; first compound 6.325 µM) of 0.19, a relative viability ([1]; first compound 20 µM) of 0.198 and a relative viability ([2]; first compound 0.2 µM) of 0.539. For the same molecule, the relative viability ([2]; first compound 0.6325 µM) was 0.553, the relative viability ([2]; first compound 2 µM) was 0.532 and the relative viability ([2]; first compound 6.325 µM) was 0.556. For the same molecule, the relative viability ([2]; first compound 20 µM) was 0.312, the relative viability ([3]; first compound 0.2 µM) was 0.217 and the relative viability ([3]; first compound 0.6325 µM) was 0.225. It also gave a relative viability ([3]; first compound 2 µM) of 0.225, a relative viability ([3]; first compound 6.325 µM) of 0.239 and a relative viability ([3]; first compound 20 µM) of 0.162. It also gave a relative viability ([4]; first compound 0.2 µM) of 0.161, a relative viability ([4]; first compound 2 µM) of 0.176 and a relative viability ([4]; first compound 6.325 µM) of 0.152. For the same molecule, the relative viability ([4]; first compound 20 µM) was 0.0413, the relative viability ([5]; first compound 0.2 µM) was 0.275 and the relative viability ([5]; first compound 0.6325 µM) was 0.249. For the same molecule, the relative viability ([5]; first compound 2 µM) was 0.263, the relative viability ([5]; first compound 6.325 µM) was 0.246 and the relative viability ([5]; first compound 20 µM) was 0.167. For the same molecule, the relative viability ([6]; first compound 0.2 µM) was 0.293, the relative viability ([6]; first compound 0.6325 µM) was 0.292 and the relative viability ([6]; first compound 2 µM) was 0.287. It also gave a relative viability ([6]; first compound 6.325 µM) of 0.268, a relative viability ([6]; first compound 20 µM) of 0.232 and a relative viability ([7]; first compound 0.2 µM) of 0.413. It also gave a relative viability ([7]; first compound 0.6325 µM) of 0.499, a relative viability ([7]; first compound 2 µM) of 0.456 and a relative viability ([7]; first compound 6.325 µM) of 0.466. For the same molecule, the relative viability ([7]; first compound 20 µM) was 0.393, the relative viability ([8]; first compound 0.2 µM) was 0.9 and the relative viability ([8]; first compound 0.6325 µM) was 0.737. The relative viability ([8]; first compound 2 µM) was 0.891, the relative viability ([8]; first compound 6.325 µM) was 0.715 and the relative viability ([8]; first compound 20 µM) was 0.453. It also gave a relative viability ([9]; first compound 0.2 µM) of 0.29, a relative viability ([9]; first compound 0.6325 µM) of 0.317 and a relative viability ([9]; first compound 2 µM) of 0.348. It also gave a relative viability ([9]; first compound 6.325 µM) of 0.235, a relative viability ([9]; first compound 20 µM) of 0.154 and a relative viability ([10]; first compound 0.2 µM) of 0.853. For the same molecule, the relative viability ([10]; first compound 0.6325 µM) was 0.848, the relative viability ([10]; first compound 2 µM) was 0.826 and the relative viability ([10]; first compound 6.325 µM) was 0.666. The relative viability ([10]; first compound 20 µM) was 0.627, the relative viability ([11]; first compound 0.2 µM) was 0.289 and the relative viability ([11]; first compound 0.6325 µM) was 0.317. For the same molecule, the relative viability ([11]; first compound 2 µM) was 0.28, the relative viability ([11]; first compound 6.325 µM) was 0.223 and the relative viability ([11]; first compound 20 µM) was 0.187. The relative viability ([12]; first compound 0.2 µM) was 1.03, the relative viability ([12]; first compound 0.6325 µM) was 1.05 and the relative viability ([12]; first compound 2 µM) was 1.09. The relative viability ([12]; first compound 6.325 µM) was 0.916, the relative viability ([12]; first compound 20 µM) was 0.884 and the relative viability ([13]; first compound 0.2 µM) was 0.903. For the same molecule, the relative viability ([13]; first compound 0.6325 µM) was 0.873, the relative viability ([13]; first compound 2 µM) was 0.885 and the relative viability ([13]; first compound 6.325 µM) was 0.777. For the same molecule, the relative viability ([13]; first compound 20 µM) was 0.833, the relative viability ([14]; first compound 0.2 µM) was 0.593 and the relative viability ([14]; first compound 0.6325 µM) was 0.724. For the same molecule, the relative viability ([14]; first compound 2 µM) was 0.729, the relative viability ([14]; first compound 6.325 µM) was 0.601 and the relative viability ([14]; first compound 20 µM) was 0.644. It also gave a relative viability ([15]; first compound 0.2 µM) of 0.386, a relative viability ([15]; first compound 0.6325 µM) of 0.345 and a relative viability ([15]; first compound 2 µM) of 0.347. The relative viability ([15]; first compound 6.325 µM) was 0.168, the relative viability ([15]; first compound 20 µM) was 0.152 and the relative viability ([16]; first compound 0.2 µM) was 0.719. For the same molecule, the relative viability ([16]; first compound 0.6325 µM) was 0.768, the relative viability ([16]; first compound 2 µM) was 0.75 and the relative viability ([16]; first compound 6.325 µM) was 0.751. It also gave a relative viability ([16]; first compound 20 µM) of 0.757, a relative viability ([17]; first compound 0.2 µM) of 0.667 and a relative viability ([17]; first compound 0.6325 µM) of 0.469. It also gave a relative viability ([17]; first compound 2 µM) of 0.717, a relative viability ([17]; first compound 6.325 µM) of 0.5 and a relative viability ([17]; first compound 20 µM) of 0.204. The relative viability ([18]; first compound 0.2 µM) was 0.676, the relative viability ([18]; first compound 0.6325 µM) was 0.908 and the relative viability ([18]; first compound 2 µM) was 0.975. It also gave a relative viability ([18]; first compound 6.325 µM) of 0.651, a relative viability ([18]; first compound 20 µM) of 0.562 and a relative viability ([19]; first compound 0.2 µM) of 0.137. For the same molecule, the relative viability ([19]; first compound 0.6325 µM) was 0.124, the relative viability ([19]; first compound 2 µM) was 0.151 and the relative viability ([19]; first compound 6.325 µM) was 0.156. The relative viability ([19]; first compound 20 µM) was 0.111, the relative viability ([20]; first compound 0.2 µM) was 1.18 and the relative viability ([20]; first compound 0.6325 µM) was 1.04. The relative viability ([20]; first compound 2 µM) was 1.14, the relative viability ([20]; first compound 6.325 µM) was 0.948 and the relative viability ([20]; first compound 20 µM) was 0.485. It also gave a relative viability ([21]; first compound 0.2 µM) of 0.962, a relative viability ([21]; first compound 0.6325 µM) of 0.907 and a relative viability ([21]; first compound 2 µM) of 0.796. It also gave a relative viability ([21]; first compound 6.325 µM) of 0.56, a relative viability ([21]; first compound 20 µM) of 0.298 and a relative viability ([22]; first compound 0.2 µM) of 0.721. For the same molecule, the relative viability ([22]; first compound 0.6325 µM) was 0.848, the relative viability ([22]; first compound 2 µM) was 0.815 and the relative viability ([22]; first compound 6.325 µM) was 0.739. It also gave a relative viability ([22]; first compound 20 µM) of 0.369.
